Reference: article PMC7031696 (Cell chemical biology, 2019)
pIC50: −log10 of the molar value. Read-outs that look alike come from different tables or passages of the source.

What was measured:
[1] = system: Plasmodium falciparum 3D7-A10 parasites; assay: Stage specificity assay (8-h exposure of synchronized stages, IC50^8h); assay type: cell-based; settings: for IC50 / pIC50: Plasmodium falciparum
[2] = system: asynchronous 3D7-A10 parasite cultures; assay: Standard 72-h exposure asexual blood stage susceptibility assay (IC50^72h); assay type: cell-based, Plasmodium falciparum; settings: Plasmodium falciparum, 3D7, 72 h, read-out: Overall (72hr assay) Mean IC50 (IC50^72h)
[3] = system: 3D7-MR4 trophozoite parasite-infected RBCs; assay: Metabolomic profiling (hydrophilic metabolite changes, UHPLC-MS); assay type: cell-based, Plasmodium falciparum
[4] = 1.5 h, 500 μM, pH 7.4
[5] = system: 3D7-MR4 trophozoite parasite-infected RBCs; settings: 10 × IC50^72h; ref Allman et al., 2016; cited from earlier work

Structure (SMILES): CCCN(CCC)CC(O)COc1ccccc1C(=O)Nc1ccccc1 (centres unmarked) [MMV006455]
- Ratio lowest IC50 8hr/IC50 72hr ([1]; 3D7-A10): 1.0
- killing in stage specificity assay ([1]; 8-h exposures, survival curves): incomplete killing at all asexual blood stages
- IC50 ([1]; 3D7, read-out: Early rings IC50 (IC50^8h), 8-h exposure 0–8 hr, bound given in μM): > 12.5 µM
- pIC50 ([1]; 3D7, read-out: Early trophozoites Mean IC50 (IC50^8h), 8-h exposure 16–24 hr, 3D7-A10, survival at 60 h): 6.36
- IC50 ([1]; 3D7, read-out: Late rings IC50 (IC50^8h), 8-h exposure 8–16 hr, bound given in μM): > 12.5 µM
- pIC50 ([1]; 3D7, read-out: Late trophozoites Mean IC50 (IC50^8h), 8-h exposure 24–32 hr, 3D7-A10, survival at 60 h): 6.35
- pIC50 ([1]; 3D7, read-out: Schizonts Mean IC50 (IC50^8h), 8-h exposure 32–40 hr, 3D7-A10, survival at 60 h): 6.03
- Stage of peak activity (Figure 6) ([1]; period when the parasite was most susceptible (lowest IC50^8h)): trophozoites
- Peak Activity (Table S1) ([1]; stage(s) with the lowest IC50^8h): Trophs
- pIC50 [2]: 6.36
- Log2(fold changes) 3-phosphoglycerate ([3]; metabolite 3-phosphoglycerate, log2 fold change): 0.4787
- Log2(fold changes) 4-Pyridoxic acid ([3]; metabolite 4-Pyridoxic acid, log2 fold change): -0.2918
- Log2(fold changes) 4-aminobutyrate ([3]; metabolite 4-aminobutyrate, log2 fold change): 0.4559
- Log2(fold changes) 4-phosphopantetheine ([3]; metabolite 4-phosphopantetheine, log2 fold change): 0.0000
- Log2(fold changes) 4-phosphopantothenate ([3]; metabolite 4-phosphopantothenate, log2 fold change): 0.3730
- Log2(fold changes) 5-aminopentanoic acid ([3]; metabolite 5-aminopentanoic acid, log2 fold change): 0.0000
- Log2(fold changes) 5-methyl-THF ([3]; metabolite 5-methyl-THF, log2 fold change): 0.0000
- Log2(fold changes) 5-phosphoribosyl-1-pyrophosphate ([3]; metabolite 5-phosphoribosyl-1-pyrophosphate, log2 fold change): -0.9177
- Log2(fold changes) 6-phospho-D-gluconate ([3]; metabolite 6-phospho-D-gluconate, log2 fold change): 0.4580
- Log2(fold change) HVDD ([3]; metabolite HVDD): 0.0000
- Log2(fold change) Hydroxyisocaproic acid ([3]; metabolite Hydroxyisocaproic acid): 0.0000
- Log2(fold change) IDP ([3]; metabolite IDP): 0.0000
- Log2(fold change) IMP ([3]; metabolite IMP): 0.8206
- Log2(fold change) Inositol ([3]; metabolite Inositol): 0.0000
- Log2(fold change) Isopentyl-PP ([3]; metabolite Isopentyl-PP): 0.0000
- Log2(fold change) L-arginino-succinate ([3]; metabolite L-arginino-succinate): 0.0000
- Log2(fold change) LD ([3]; metabolite LD): -0.4790
- Log2(fold change) Myristoyl/tetradecanoyl-CoA ([3]; metabolite Myristoyl/tetradecanoyl-CoA): 0.0000
- Log2(fold change) N-Acetyl-L-alanine ([3]; metabolite N-Acetyl-L-alanine): -0.7708
- Log2(fold change) N-acetyl-L-ornithine ([3]; metabolite N-acetyl-L-ornithine): -1.4120
- Log2(fold change) N-acetyl-glucosamine-1/6-phosphate ([3]; metabolite N-acetyl-glucosamine-1/6-phosphate): 1.1792
- Log2(fold change) N-acetyl-glutamate ([3]; metabolite N-acetyl-glutamate): 0.9055
- Log2(fold change) N-acetyl-glutamine ([3]; metabolite N-acetyl-glutamine): -0.4062
- Log2(fold change) N-carbamoyl-L-aspartate ([3]; metabolite N-carbamoyl-L-aspartate): -1.3580
- Log2(fold change) NAD+ ([3]; metabolite NAD+): 0.6496
- Log2(fold change) NADH ([3]; metabolite NADH): -0.2919
- Log2(fold change) NADP+ ([3]; metabolite NADP+): 1.1032
- Log2(fold change) NADPH ([3]; metabolite NADPH): 1.2448
- Log2(fold change) O-acetyl-L-serine ([3]; metabolite O-acetyl-L-serine): 0.0000
- Log2(fold change) Octoluse 8/1P ([3]; metabolite Octoluse 8/1P): -0.0556
- Log2(fold change) Octoluse Bisphosphate ([3]; metabolite Octoluse Bisphosphate): 0.1196
- Log2(fold change) PD ([3]; metabolite PD): -1.7411
- Log2(fold change) PE ([3]; metabolite PE): 2.1593
- Log2(fold change) PEE ([3]; metabolite PEE): -6.2592
- Log2(fold change) PEEK ([3]; metabolite PEEK): -3.5426
- Log2(fold change) PVNF ([3]; metabolite PVNF): -1.5028
- Log2(fold change) Pyroglutamic acid ([3]; metabolite Pyroglutamic acid): -0.5503
- Log2(fold change) Pyrophosphate ([3]; metabolite Pyrophosphate): -0.6263
- Log2(fold change) Ribose-5-phosphate ([3]; metabolite Ribose-5-phosphate): 0.0000
- Log2(fold change) S-adenosyl-L-homocysteine ([3]; metabolite S-adenosyl-L-homocysteine): 0.2802
- Log2(fold change) S-adenosyl-L-methioninamine ([3]; metabolite S-adenosyl-L-methioninamine): 0.0000
- Log2(fold change) S-adenosyl-L-methionine ([3]; metabolite S-adenosyl-L-methionine): 0.0000
- Log2(fold change) S-methyl-5'-thioadenosine ([3]; metabolite S-methyl-5'-thioadenosine): 1.5238
- Log2(fold change) SD ([3]; metabolite SD): -2.2607
- Log2(fold change) SDL ([3]; metabolite SDL): 0.0000
- Log2(fold change) SID ([3]; metabolite SID): 0.0000
- Log2(fold change) Sedoheptulose bisphosphate ([3]; metabolite Sedoheptulose bisphosphate): 0.2316
- Log2(fold change) Thiamine pyrophosphate ([3]; metabolite Thiamine pyrophosphate): 0.0000
- Log2(fold changes) UDP-D-glucose ([3]; metabolite UDP-D-glucose, log2 fold change): 0.1600
- Log2(fold changes) UDP-D-glucuronate ([3]; metabolite UDP-D-glucuronate, log2 fold change): -0.0808
- Log2(fold changes) UDP-N-acetyl-glucosamine ([3]; metabolite UDP-N-acetyl-glucosamine, log2 fold change): 0.3510
- Log2(fold changes) UDP ([3]; metabolite UDP, log2 fold change): 0.8505
- Log2(fold changes) UMP ([3]; metabolite UMP, log2 fold change): -0.5223
- Log2(fold changes) UTP ([3]; metabolite UTP, log2 fold change): -1.8892
- Log2(fold change) hydroxyphenylpyruvate ([3]; metabolite hydroxyphenylpyruvate): 0.0000
- Log2(fold change) hydroxyproline/Aminolevulinate ([3]; metabolite hydroxyproline/Aminolevulinate): 0.0000
- Log2(fold change) hypoxanthine ([3]; metabolite hypoxanthine): 0.1926
- Log2(fold change) indole ([3]; metabolite indole): -0.2645
- Log2(fold change) inosine ([3]; metabolite inosine): 0.3717
- Log2(fold change) isoleucine ([3]; metabolite isoleucine): 0.0000
- Log2(fold change) lactate ([3]; metabolite lactate): 1.3382
- Log2(fold change) leucine ([3]; metabolite leucine): 0.0000
- Log2(fold change) lysine ([3]; metabolite lysine): 0.0000
- Log2(fold change) malate ([3]; metabolite malate): 1.2603
- Log2(fold change) maleic acid ([3]; metabolite maleic acid): 0.0000
- Log2(fold change) methionine ([3]; metabolite methionine): 0.0000
- Log2(fold change) myo-inositol ([3]; metabolite myo-inositol): 3.3468
- Log2(fold change) nicotinamide mononucleotide ([3]; metabolite nicotinamide mononucleotide): 0.0000
- Log2(fold change) nicotinate ([3]; metabolite nicotinate): 0.0981
- Log2(fold change) ornithine ([3]; metabolite ornithine): -0.2237
- Log2(fold change) orotate ([3]; metabolite orotate): -1.3257
- Log2(fold change) orotidine-5'-phosphate ([3]; metabolite orotidine-5'-phosphate): 0.0000
- Log2(fold change) oxaloacetate ([3]; metabolite oxaloacetate): 0.0000
- Log2(fold change) p-aminobenzoate ([3]; metabolite p-aminobenzoate): 0.0000
- Log2(fold change) p-hydroxybenzoate ([3]; metabolite p-hydroxybenzoate): 0.4381
- Log2(fold change) pantothenate ([3]; metabolite pantothenate): 0.0000
- Log2(fold change) phenylalanine ([3]; metabolite phenylalanine): 0.0000
- Log2(fold change) phenylpyruvate ([3]; metabolite phenylpyruvate): 0.1142
- Log2(fold change) phosphoenolpyruvate ([3]; metabolite phosphoenolpyruvate): 0.0121
- Log2(fold change) prephenate ([3]; metabolite prephenate): 0.0000
- Log2(fold change) proline ([3]; metabolite proline): 0.0000
- Log2(fold change) pyridoxine ([3]; metabolite pyridoxine): 0.0000
- Log2(fold change) pyruvate ([3]; metabolite pyruvate): 0.4670
- Log2(fold change) riboflavin ([3]; metabolite riboflavin): 0.0000
- Log2(fold change) ribose ([3]; metabolite ribose): 0.0000
- Log2(fold change) ribose-phosphate ([3]; metabolite ribose-phosphate): -0.0481
- Log2(fold change) ribulose-5-phosphate ([3]; metabolite ribulose-5-phosphate): 0.0000
- Log2(fold change) serine ([3]; metabolite serine): 0.0000
- Log2(fold change) sn-glycerol-3-phosphate ([3]; metabolite sn-glycerol-3-phosphate): -0.3619
- Log2(fold change) succinate/Methylmalonic acid ([3]; metabolite succinate/Methylmalonic acid): -0.7549
- Log2(fold change) succinyl-CoA/methylmalonyl-CoA ([3]; metabolite succinyl-CoA/methylmalonyl-CoA): 0.0000
- Log2(fold change) taurine ([3]; metabolite taurine): 0.0000
- Log2(fold change) thiamine ([3]; metabolite thiamine): 0.0000
- Log2(fold change) threonine/homoserine ([3]; metabolite threonine/homoserine): 0.0000
- Log2(fold change) thymidine ([3]; metabolite thymidine): -0.5446
- Log2(fold changes) thymine ([3]; metabolite thymine, log2 fold change): 3.4235
- Log2(fold changes) trehalose-6-Phosphate ([3]; metabolite trehalose-6-Phosphate, log2 fold change): 0.0000
- Log2(fold changes) tryptophan ([3]; metabolite tryptophan, log2 fold change): 0.0000
- Log2(fold changes) tyrosine ([3]; metabolite tyrosine, log2 fold change): 0.0000
- Log2(fold changes) uridine ([3]; metabolite uridine, log2 fold change): 0.2304
- Ratio fil./std. (absorbance filtrate/standard) [4]: 1.00
- levels of cAMP [5]: decreased
- levels of the deoxyribonucleotides dAMP and dTMP [5]: increased
- peptide levels (hemoglobin catabolism signature) [5]: decreased peptide levels
- solubility at 1.5 h (physchem; pH 7.4): > 100 µM
- solubility at 1.5 h (physchem; pH 7.4, aqueous buffer, kinetic from dmso stock): ≥ 500 µM
